From US10166253B2, “Positively charged co-polymers for use as antimicrobial agents” (priority 2014, dated 2019)

Columns and labels:
[1] = tested on: P. aeruginosa (Strain PAO1); experiment: Antimicrobial susceptibility testing by flow cytometry-based assay (LIVE/DEAD BacLight, Syto9/PI); assay type: cell-based
Description: E. coli (strain NCTC 10418), P. aeruginosa (Strain PAO1) and S. aureus (Wood 46, NCTC 7121) cells were grown in 5 mL of Todd Hewitt Broth medium (THB; Sigma-Aldrich). Bacteria were cultivated at 37° C. for 15 h in a 15 mL tube to obtain late-log phase cultures. Bacterial cultures were pelleted at 3096 g for 10 minutes; the supernatant was discarded and bacteria were resuspended in phosphate-buffered saline (PBS) supplemented with 40 mg/ml human albumin to mimic chemical properties of blood. Bacteria were diluted to a standardized inoculum of 10^9 CFU/mL.
Bacteria were treated with GA, LL-37, Piperacillin/Tazobactam or Vancomycin in varying concentrations, i.e. 50, 25, 10 or 2 μg/ml, for 30 minutes. As a positive control, bacteria were treated with 7% isopropanol. Hereafter, bacteria were pelleted at 3096 g for 10 minutes; the supernatant was discarded and bacteria were resuspended in PBS. The antimicrobial effect was tested in a well-established and widely used flow cytometry-based assay (LIVE/DEAD® BacLight™ Bacterial Viability and Counting Kit (L34856), Molecular Probes/Invitrogen) according to manufacturer's manual.
For each bacteria, the flow cytometry-based assay was repeated four times.
The antibacterial effect of GA on the gram-negative strain P. aeruginosa was tested by carrying out an experiment as described in Example 1. […] Although the untreated control stained positive for PI, this seemed to be explained by the capability of intact P. aeruginosa to secrete large quantities of DNA to the extracellular milieu.

[2] = tested on: P. aeruginosa (strain PAO1, ATCC 15692); experiment: Colony-forming unit (CFU) counting; assay type: cell-based, Pseudomonas aeruginosa; details: 30 minutes at 37° C. in PBS, in comparison with LL-37
Description: (§1) Late-log phase E. coli (strain NCTC 10418), P. aeruginosa (strain PAO1, ATCC 15692) and S. aureus (Wood 46, NCTC 7121) were resuspended in PBS and treated with different concentrations of glatiramer acetate (GA) or LL-37 (Innovagen, Lund, Sweden) and incubated on a shaker for 30 minutes at 37° C. Subsequently, a dilution series was performed to achieve a suitable amount of bacteria on the 5% blood agar plates. The 5% blood agar streak plates were cultured at 37° C. for 16 h and the resulting CFUs on the blood agar plates were imaged with a digital camera and counted with the aid of the software ImageJ 1.48v.

[3] = tested on: S. aureus (Wood 46, NCTC 7121); experiment: Colony-forming unit (CFU) counting; assay type: cell-based, Staphylococcus aureus; details: 30 minutes at 37° C. in PBS
Description: as §1

P. aeruginosa (PAO1) [4] = experiment: Antimicrobial activity in human serum and plasma (flow cytometry, PI/Syto9); assay type: cell-based, Pseudomonas aeruginosa; details: P. aeruginosa PAO1 ~10^8 cells/ml
Excerpt: It has been reported that the antimicrobial activity of antimicrobial peptides are inhibited by their binding to different factors in human plasma (Wang, Y., et al., Apolipoprotein A-I binds and inhibits the human antibacterial/cytotoxic peptide LL-37. J Biol Chem, 1998. 273(50): p. 33115-8), serum and is influenced by pH and ion composition (Johansson, J., et al., Conformation-dependent antibacterial activity of the naturally occurring human peptide LL-37. J Biol Chem, 1998. 273(6): p. 3718-24). To investigate the potential of GA for systemic application, bacterial isolates of P. aeruginosa (PAO1, ˜10^8 cells/ml) were incubated with increasing concentrations of GA and compared to LL-37. Bacterial survival and enumeration was evaluated by a flow cytometry bead standard and stained with propidium iodide and Syto9 following procedures as previously described above in the antimicrobial susceptibility testing by flow cytometry-based assay. […] All experiments were performed as four replicates.

E. coli (NCTC 10418) [5] = experiment: Binding of Alexa Fluor 488-labeled GA to bacteria (MFI by flow cytometry); design: species or system Escherichia coli; details: PBS + 50 mM NaCl, total salt 200 mM, GA 50 and 10 μg/ml
Description: GA was diluted in freshly made 0.1 M NaHCO3 and labeled with Alexa Fluor 488 according to manufacturer's instruction. Late-log phase E. coli (strain NCTC 10418), P. aeruginosa (strain PAO1, ATCC 15692) and S. aureus (Wood 46, NCTC 7121) were resuspended in PBS or PBS supplemented with 50 mM NaCl; treated with either 50 μg/ml or 10 μg/ml Alexa Fluor® 488-labeled GA and incubated on a shaker at 37° C. for 30 minutes. Hereafter, bacteria were diluted 1:100 in PBS and analyzed on a Novocyte™ flow cytometer.
This constitutes a problem when for example treating patients with cystic fibrosis. These patients have a high salt concentration in their lungs of about 150-200 mM, and it is therefore critical that drugs used for treating these patients are active at such high salt concentrations (Gilljam H et al., Scand J Clin Lab Invest. 1989 April; 49(2):121-4). Therefore, the binding capacity of GA to bacteria resuspended in PBS or in PBS supplemented with 50 mM NaCl. PBS+50 mM NaCl results in a total salt concentration of 200 mM. […]
Mean Fluorescence intensities (MFI) were assessed by flow cytometry to quantify the binding capacity of GA to the bacterial membrane. […]

E. coli (NCTC 10418) [6] = experiment: Transmission electron microscopy of treated bacteria; assay type: cell-based, Escherichia coli
Excerpt: (§2) Transmission electron microscopy (TEM) was applied to examine the ultrastructural changes in P. aeruginosa (PAO1), S. aureus (Wood 46) and E. coli (NCTC 10418) induced after treatment with GA and LL-37. […] This critical alteration in the outer membrane of E. coli has previously been described as a disintegration of the outer membrane into micelles and vesicle-like structures (Meincken, M., D. L. Holroyd, and M. Rautenbach, Atomic force microscopy study of the effect of antimicrobial peptides on the cell envelope of Escherichia coli. Antimicrob Agents Chemother, 2005. 49(10): p. 4085-92). […] After incubation with LL-37 and GA, we found burst cells, but this observation was most significant after treatment with LL-37 (FIG. 9). Scale bar, 0.5 μm. Experiments were performed as 2 replicates.

P. aeruginosa (PAO1) [7] = experiment: as above; assay type: cell-based, Pseudomonas aeruginosa
Excerpt: as §2

[8] = tested on: multi-resistant P. aeruginosa strain (CCUG59626); experiment: Flow cytometry viability assay on multiresistant strain; assay type: cell-based, Pseudomonas aeruginosa; details: CCUG59626, ~10^8 cells/ml
Description: A multi-resistant P. aeruginosa strain (CCUG59626) (˜10^8 cells/ml) was incubated with varying concentrations of GA and LL-37. […] All experiments were performed as four replicates.

[9] = within the 30 minutes of treatment

Glatiramer acetate [GA]
antimicrobial activity (in words) [1, 9]: more potent than when treating bacteria with 7% isopropanol
decreased bacterial inoculum [1, 9]: ~75%
increased PI positivity ([1]; within the 30 minutes of treatment (FIG. 4 overview)): ~50%
antibacterial effect by CFU counting (in words) [2]: higher antimicrobial activity
antibacterial effect by CFU counting (in words) [3]: low antimicrobial impact
antimicrobial activity in human plasma and serum (in words) (P. aeruginosa (PAO1) [4]): retains antimicrobial activity
binding capacity to bacteria (MFI, in words) (E. coli (NCTC 10418) [5]): retained its binding capacity
ultrastructural changes (TEM, in words) (E. coli (NCTC 10418) [6]): Signs of damage to the bacterial membrane
ultrastructural changes (TEM, in words) (P. aeruginosa (PAO1) [7]): dramatically reduced number of P. aeruginosa
susceptibility of multiresistant strain (in words) [8]: highly susceptible
